# Key:
# [1] = In vivo PK experiment: oral SQV with or without oral RESV; design: species or system rat; settings: rats
# [2] = low solubility and high permeability; cited from earlier work
# [3] = clinical practice; cited from earlier work
SMILES,"Effect of coadministration on Cmax of SQV ([1]; RESV 20 mg/kg oral with SQV 30 mg/kg oral, P>0.05)",Biopharmaceutics Classification System class [2],"Time of first peak in plasma levels ([1]; SQV 30 mg/kg oral, RESV (20 mg/kg) treatment group) [h]","Time of second peak in plasma levels ([1]; SQV 30 mg/kg oral, both groups (with or without RESV 20 mg/kg))","Time of first peak in plasma levels ([1]; SQV 30 mg/kg oral, control group)",Coefficient of variation (CV) of oral bioavailability [3] [%],Oral bioavailability [3]
"Oc1ccc(/C=C/c2cc(O)cc(O)c2)cc1 [RESV, resveratrol]",not significantly affected,,,,,,
"CC(C)(C)NC(=O)[C@@H]1C[C@@H]2CCCC[C@@H]2CN1C[C@@H](O)[C@H](Cc1ccccc1)NC(=O)[C@H](CC(N)=O)NC(=O)c1ccc2ccccc2n1 [SQV, saquinavir]",,class II,~0.25,~ 4 h,~ 0.5 h,> 100,~ 4%

# From paper PMC5117956 (Drug Design, Development and Therapy, 2016)
